Where two headings read alike, the source gives them in different places. Where no end group is shown, it is not given here.
Assays:
CRF R1 = target: T1, CRF R1 (Homo sapiens, UniProt P34998); conditions: cited from earlier work
T1 sequence (P34998 24-415): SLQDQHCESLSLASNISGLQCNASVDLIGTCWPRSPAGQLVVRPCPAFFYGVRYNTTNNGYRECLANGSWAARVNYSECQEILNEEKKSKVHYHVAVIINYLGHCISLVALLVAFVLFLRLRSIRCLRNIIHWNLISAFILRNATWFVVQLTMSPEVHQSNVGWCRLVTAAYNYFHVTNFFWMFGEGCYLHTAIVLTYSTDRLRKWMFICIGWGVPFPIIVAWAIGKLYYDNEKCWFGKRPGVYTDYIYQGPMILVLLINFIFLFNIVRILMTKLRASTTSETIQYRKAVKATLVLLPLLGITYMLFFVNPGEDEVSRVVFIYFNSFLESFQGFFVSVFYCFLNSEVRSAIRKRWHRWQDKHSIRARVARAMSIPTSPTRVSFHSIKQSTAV

[1] = plasma concentration time profile of hCRF after single intravenous and single subcutaneous injection (ELISA); type: in vivo, Sprague-Dawley Crl:CD rats; conditions: rat; for bioavailability: sc
Source text: The objective of this study was to determine the plasma concentration time profile of hCRF following a single intravenous and a single subcutaneous injection in three groups of Sprague-Dawley Crl:CD® :R rats. […] For the intravenous portion of the study, each of the three dose groups consisted of 72 males. Each of these groups was divided into three sets of replicates. Seven days after the intravenous portion of the study, 61 of the 72 animals from each of the three dose groups were randomly selected for the subcutaneous portion of the study. Each dose group was divided into three sets of replicates. Blood samples were taken at multiple time points via orbital sinus bleeding. Following intravenous dosing, blood samples were collected at time points out to 24 hours post dose. Following subcutaneous dosing, blood samples were collected at time points out to 48 hours post dose. Blood samples were collected from three rats in each dose group for each time point. […] All of the surviving animals were euthanized on the third day following subcutaneous dosing.
Plasma samples were prepared and hCRF concentrations in the plasma samples were determine by an ELISA method. […] Pharmacokinetic analyses were conducted for this dose group using the limited data obtained.

Ucn II: CRF-related peptide urocortin II, 26% sequence homology to CRF (IVLSLDVPIGLLQILLEQARARAAREQATTNARILARVGHC; ends and bridges not checked; UniProt Q96RP3 72-112, looked up)
affinity for the CRF R1 subtype (CRF R1): little affinity

CC[C@H](C)[C@H](NC(=O)[C@@H](NC(=O)[C@H](CCC(=O)O)NC(=O)[C@H](CCSC)NC(=O)[C@H](CC(C)C)NC(=O)[C@H](CCCCN)NC(=O)[C@H](CCCNC(=N)N)NC(=O)[C@H](CC(N)=O)NC(=O)[C@H](CO)NC(=O)[C@H](Cc1c[nH]cn1)NC(=O)[C@H](C)NC(=O)[C@H](CCC(N)=O)NC(=O)[C@H](CCC(N)=O)NC(=O)[C@H](C)NC(=O)[C@H](CC(C)C)NC(=O)[C@H](CCC(N)=O)NC(=O)[C@H](CCC(=O)O)NC(=O)[C@H](C)NC(=O)[C@H](CCCNC(=N)N)NC(=O)[C@H](C)NC(=O)[C@H](CCSC)NC(=O)[C@H](CCC(=O)O)NC(=O)[C@H](CC(C)C)NC(=O)[C@@H](NC(=O)[C@H](CCC(=O)O)NC(=O)[C@H](CCCNC(=N)N)NC(=O)[C@H](CC(C)C)NC(=O)[C@H](CC(C)C)NC(=O)[C@H](Cc1c[nH]cn1)NC(=O)[C@H](Cc1ccccc1)NC(=O)[C@@H](NC(=O)[C@H](CC(C)C)NC(=O)[C@H](CC(=O)O)NC(=O)[C@H](CC(C)C)NC(=O)[C@H](CO)NC(=O)[C@@H](NC(=O)[C@@H]1CCCN1C(=O)[C@@H]1CCCN1C(=O)[C@H](CCC(=O)O)NC(=O)[C@H](CCC(=O)O)NC(=O)[C@@H](N)CO)[C@@H](C)CC)[C@@H](C)O)C(C)C)[C@@H](C)CC)C(N)=O [hCRF]
AUC ([1]; in vivo, 10 ug/kg, IV): 5.5 ng·h/mL | Cmax ([1]; in vivo, 10 ug/kg, IV): 25.1 ± 3.8 ng/mL | clearance ([1]; in vivo, 10 ug/kg, IV): 30 ± 3.06 mL/min/kg | half-life ([1]; in vivo, 10 ug/kg, intravenous, 10 μg/kg, single exponential clearance, read-out: half-life): 9.2 min | AUC ([1]; in vivo, 100 ug/kg, IV): 516 ng·h/mL | Cmax ([1]; in vivo, 100 ug/kg, IV): 1040 ± 105 ng/mL | clearance ([1]; in vivo, 100 ug/kg, IV): 3.23 ± 0.26 mL/min/kg | AUC ([1]; in vivo, 100 ug/kg, SC): 214 ng·h/mL | Cmax ([1]; in vivo, 100 ug/kg, SC): 108 ± 16.7 ng/mL | half-life ([1]; in vivo, 100 ug/kg, intravenous, 100 μg/kg, single exponential clearance, read-out: half-life): 20.7 min | AUC ([1]; in vivo, 1000 ug/kg, SC): 1790 ng·h/mL | Cmax ([1]; in vivo, 1000 ug/kg, SC): 618 ± 78.9 ng/mL | bioavailability ([1]; in vivo, 100 ug/kg, subcutaneous): 41% | bioavailability ([1]; in vivo, subcutaneous, 1,000 μg/kg): 37% | AUC ([1]; in vivo, IV, 1,000 μg/kg): 4880 ng·h/mL | Cmax ([1]; in vivo, IV, 1,000 μg/kg): 7600 ± 488 ng/mL | clearance ([1]; in vivo, IV, 1,000 μg/kg): 3.42 ± 0.18 mL/min/kg | half-life ([1]; in vivo, intravenous, 1,000 μg/kg, single exponential clearance, read-out: half-life): 26.7 min | half-life ([1]; male, Sprague-Dawley Crl:CD, plasma, 100 ug/kg, SC, 100 μg/kg, read-out: t1/2β (terminal)): 62.6 ± 5.9 min | half-life ([1]; male, Sprague-Dawley Crl:CD, plasma, 1000 ug/kg, SC, 1000 μg/kg, read-out: t1/2β (terminal)): 72.1 ± 14.8 min | t1/2α ([1]; IV, 10 μg/kg): 9.22 ± 1.05 min | t1/2α ([1]; IV, 100 μg/kg): 20.71 ± 0.92 min | t1/2α ([1]; IV, 1,000 μg/kg): 26.69 ± 0.62 min | Bioavail. ([1]; SC, 100 μg/kg): 41 ± 6% | CL ([1]; SC, 100 μg/kg): 7.78 ± 1.01 mL/min/kg | t1/2α ([1]; SC, 100 μg/kg): 6.96 ± 3.44 min | Bioavail. ([1]; SC, 1000 μg/kg): 37 ± 5% | CL ([1]; SC, 1000 μg/kg): 9.30 ± 1.05 mL/min/kg | t1/2α ([1]; SC, 1000 μg/kg): 21.56 ± 8.15 min | dose proportionality of pharmacokinetics ([1]; intravenously or subcutaneously, between 100 and 1,000 μg/kg): dose proportional

III: CRF-related peptide Ucn III, also known as stresscopin (FTLSLDVPTNIMNLLFNIAKAKNLRAQAAANAHLMAQI; ends and bridges not checked; UniProt Q969E3 120-157, looked up)
affinity for the CRF R1 subtype (CRF R1): little affinity

Reference: patent publication US20100249027A1, “CRF CONJUGATES WITH EXTENDED HALF-LIVES” (priority 2007, published 2010)
